Assay results reported in article PMC3967794 (Journal of medicinal chemistry, 2014).

What was measured:
[1] = target: T1, human platelet 12-lipoxygenase (12-LOX) (Homo sapiens, UniProt P18054); assay: Lipoxygenase UV–vis cuvette-based assay, 12-LOX; format: biochemical
T1 sequence (P18054 1-663): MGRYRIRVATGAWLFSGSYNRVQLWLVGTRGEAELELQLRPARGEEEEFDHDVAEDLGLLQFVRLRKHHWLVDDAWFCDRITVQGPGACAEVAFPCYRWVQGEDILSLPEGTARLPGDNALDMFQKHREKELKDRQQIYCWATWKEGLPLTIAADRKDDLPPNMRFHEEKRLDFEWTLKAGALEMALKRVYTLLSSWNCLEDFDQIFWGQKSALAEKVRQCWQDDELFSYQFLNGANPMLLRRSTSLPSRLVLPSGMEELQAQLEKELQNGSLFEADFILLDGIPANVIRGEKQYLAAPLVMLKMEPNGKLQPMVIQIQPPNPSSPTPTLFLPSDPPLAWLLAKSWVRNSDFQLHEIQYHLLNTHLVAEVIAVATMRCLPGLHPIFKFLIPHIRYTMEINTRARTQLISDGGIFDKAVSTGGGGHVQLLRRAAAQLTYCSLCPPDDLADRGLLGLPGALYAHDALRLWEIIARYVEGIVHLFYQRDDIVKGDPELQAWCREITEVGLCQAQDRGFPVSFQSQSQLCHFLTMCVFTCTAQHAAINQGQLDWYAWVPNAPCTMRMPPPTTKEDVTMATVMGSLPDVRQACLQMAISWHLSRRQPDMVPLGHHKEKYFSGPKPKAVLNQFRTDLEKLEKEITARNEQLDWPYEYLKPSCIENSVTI

in vivo = settings: male, CD1, mouse, po, 30 mg/kg
12-LOX = target: T2, 12-LOX (Homo sapiens, UniProt P18054); assay: Steady-state inhibition kinetics; format: biochemical
T2 sequence (P18054 1-663): T1 sequence (P18054 1-663)

[2] = pH 7.4, 48 h
[3] = in the presence of NADPH

With O=S(=O)(Nc1nccs1)c1ccc(NCc2ccccc2)cc1 [Compound 8] the “12-LOX inhibitory activity (in words)” value [1] was “complete loss of activity”.

In the case of O=S(=O)(Nc1nccs1)c1ccc(NCc2ccccc2O)cc1 [Compound 9], the “12-LOX inhibitory activity (in words)” value [1] is reported as “complete loss of activity”.

In the case of Nc1ccccc1CNc1ccc(S(=O)(=O)Nc2nccs2)cc1 [Compound 13], the “12-LOX inhibitory activity (in words)” value [1] is reported as “negated all 12-LOX inhibitory activity”.

In the case of COc1cccc(CNc2ccc(S(=O)(=O)Nc3nc4ccccc4s3)cc2)c1O [Compound 35, N-(Benzo[d]thiazol-2-yl)-4-((2-hydroxy-3-methoxybenzyl)-amino)benzenesulfonamide], the “PBS buffer (pH 7.4) solubility” value (PBS buffer) is reported as under 5 µg/mL, the “concentration at which calcium mobilization is reduced significantly” value (human platelets) is reported as 250 nM and the AUC(0-inf) (in vivo) is reported as 38 µM·h.

For COc1cccc(CNc2ccc(S(=O)(=O)Nc3nc4ccccc4o3)cc2)c1O [Compound 36], the mode of inhibition (12-LOX) was “mixed inhibitors”, the “PBS buffer (pH 7.4) stability at 48 h” value [2] was 100% and the “PBS buffer (pH 7.4) solubility” value (PBS buffer) was over 60 µg/mL. The “microsomal stability T1/2 (rat)” value [3] was >30 (rat) min.
